In PubChem BioAssay AID1963829 (Molecular Pharmacology Branch, DTP, NCI, 2024) one finds IC50 and viability, T/C data, which are given here for five molecules.

The test system of the experiment is 935938-334-R-J1-PDC complex spheroid viability. The experiment in a line: Anticancer human tumor 935938-334-R-J1-PDC patient-derived small intestine adenocarcinoma cell line growth inhibition [POLQ]. The note with it: for viability, T/C: stronger effect = lower value. How it is done: Multicellular complex tumor spheroid response to Polymerase (POL) inhibitors (novobiocin, ART-558, RP6685) in combination with a variety of drugs and investigational agents in selected tumor cell lines
The POL inhibitors (novobiocin, ART-558, and RP6685) were evaluated both individually and in combination with standard of care and investigational anticancer small molecules within a complex spheroid model of solid tumors. . Complex spheroids include a stromal component modeled by human endothelial cells (HUVEC) and fibroblasts modeled by human mesenchymal stem cells (MSCs). The concentration ranges selected for each drug and investigational agent were based upon clinically achievable concentrations if the clinical Cmax of the agent was known.
Compounds. The drugs and investigational agents: novobiocin (NSC847541), ART-558 (NSC835418), RP-6685 (NSC848927), peposertib (NSC802822), ceralasertib (NSC780249), elimusertib (NSC800525), camonsertib (NSC841442), AZD-1390 (NSC803789), olaparib (NSC753686), talazoparib (NSC767125), rucaparib (NSC756644), sotorasib (NSC818433), MRTX-1133 (NSC836407), SN-38 (NSC673596), topotecan (NSC609699), epotoside (NSC141540), doxorubicin (NSC123127), gemcitabine (NSC613327), 5-fluorouracil (NSC19893), paclitaxel (NSC125973), vemurafenib (NSC761431), MSA-2 (NSC828583), SN-011 (NSC837082), adavosertib (NSC754352), prexasertib (NSC758257), carboplatin (NSC241240) and oxaliplatin (NSC266046), were obtained from the National Cancer Institute (NCI) Developmental Therapeutics Program Chemical Repository (21). The FDA-approved anticancer drug set is available from the Developmental Therapeutics Program at https://dtp.cancer.gov/organization/dscb/obtaining/. […] The stock solutions were prepared in dimethyl sulfoxide (DMSO, Sigma-Aldrich, St. Louis, MO, cat. D2650), except for the platinum compounds which were prepared in saline (Quality Biological, Gaithersburg, MD, cat. 114-055-101), at 800-fold the tested concentration and stored at -70 degrees C prior to their use. All drugs and investigational agents were tested over a range starting from a high concentration at or near the clinical Cmax and decreasing in half-log increments. If the clinical Cmax for an agent had not been determined, the highest concentration tested was 10 microM, except for SN-38, which was tested at a high concentration of 1 microM.
Cell Culture. All cells were maintained in an incubator at 37 degrees C and 5% CO2 with 95% humidity. The PDC lines were cultured according to standard operating procedures established by the NCI PDMR (https://pdmr.cancer.gov). Table 3 of the manuscript, lists the cell lines along with the number of the three cell types plated to form the mct-spheroids and media for tumor cell growth. After thawing, all PDC lines, except 997537-175-T-J1-PDC and 415267-285-R-J2-PDC, were cultured in Matrigel-coated flasks prepared with a working solution of 1X Ham's F-12 nutrient mix, without supplementation (Thermo Fisher Scientific, cat. 11765054), 100 U/mL penicillin-streptomycin (Thermo Fisher Scientific, cat. 15140122), and 2.5% Matrigel (Corning Inc., Corning, NY, cat. 354248) for the first three passages. The two PDC lines 997537-175-T-J1-PDC and 415267-285-R-J2-PDC were cultured on uncoated flasks. The 857933-349-R-J2-PDC line was cultured in 6C/Colon 1B media containing advanced DMEM/F-12 (Thermo Fisher Scientific, cat. 12634028), 10 mM HEPES (Thermo Fisher Scientific, cat. 15630080), 1X GlutaMAX supplement (Thermo Fisher Scientific, cat. 35050061), 0.1 mg/mL primocin (InvivoGen, San Diego, CA, cat. ant-pm-2), 10% defined fetal bovine serum, heat inactivated (HyClone Laboratories Inc., Logan, UT, cat. SH30070.03HI), 50% L-WRN conditioned media (ATCC, cat. CRL-3276), 1.25 mM N-Acetyl-L-cysteine (Sigma-Aldrich, cat. A9165), 10 mM nicotinamide (Sigma-Aldrich, cat. N0636), 1X B-27 supplement (Thermo Fisher Scientific, cat. 17504044), 1X N-2 supplement (Thermo Fisher Scientific, cat. […]

[1] abbreviates: curve of first compound, second compound 0.0316 µM.
Setting [2] is: curve of first compound, second compound 0.1 µM.
Where [3] appears, read: curve of first compound, second compound 0.316 µM.
[4] abbreviates: curve of first compound, second compound 1 µM.
Where [5] appears, read: curve of first compound, second compound 3.16 µM.
Setting [6] is: curve of first compound, second compound 10 µM.
Setting [7] is: second compound 0.0316 µM, first compound 0.00316 µM.
Where [8] appears, read: second compound 0.0316 µM, first compound 0.01 µM.
Where [9] appears, read: second compound 0.0316 µM, first compound 0.0316 µM.
Where [10] appears, read: second compound 0.0316 µM, first compound 0.1 µM.
Setting [11] is: second compound 0.1 µM, first compound 0.00316 µM.
Setting [12] is: second compound 0.1 µM, first compound 0.01 µM.
[13] abbreviates: second compound 0.1 µM, first compound 0.0316 µM.
Where [14] appears, read: second compound 0.1 µM, first compound 0.1 µM.
Setting [15] is: second compound 0.316 µM, first compound 0.00316 µM.
The mark [16] stands for this setting: second compound 0.316 µM, first compound 0.01 µM.
[17] abbreviates: second compound 0.316 µM, first compound 0.0316 µM.
[18] abbreviates: second compound 0.316 µM, first compound 0.1 µM.
Setting [19] is: second compound 1 µM, first compound 0.00316 µM.
[20] abbreviates: second compound 1 µM, first compound 0.01 µM.
Where [21] appears, read: second compound 1 µM, first compound 0.0316 µM.
Setting [22] is: second compound 1 µM, first compound 0.1 µM.
Setting [23] is: second compound 3.16 µM, first compound 0.00316 µM.
The mark [24] stands for this setting: second compound 3.16 µM, first compound 0.01 µM.
The mark [25] stands for this setting: second compound 3.16 µM, first compound 0.0316 µM.
The mark [26] stands for this setting: second compound 3.16 µM, first compound 0.1 µM.
The mark [27] stands for this setting: second compound 10 µM, first compound 0.00316 µM.
Where [28] appears, read: second compound 10 µM, first compound 0.01 µM.
Setting [29] is: second compound 10 µM, first compound 0.0316 µM.
Where [30] appears, read: second compound 10 µM, first compound 0.1 µM.

Molecules are shown by their SMILES. pIC50: −log10 of the molar value. Where “and” joins values, the source holds several entries; their conditions need not be identical. Identical values can stand only once.
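Also: spheroids exposed to drugs for seven days before viability read.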
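For viability, T/C in this document: 100% = DMSO vehicle control wells.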

Consider `CCc1c2c(nc3ccc(O)cc13)-c1cc3c(c(=O)n1C2)COC(=O)[C@]3(O)CC` + Nc1ccc(C#CCN(C(=O)Cc2ncc(C(F)(F)F)cc2C(F)(F)F)c2ccc(F)cc2)nn1, for which the pIC50 is 7.69 under setting [1]; 7.77 under setting [2]; 7.74 under setting [3]; 7.65 under setting [4]; 7.82 under setting [5]; 7.66 under setting [6]. The viability, T/C reads like this: under setting [7], 83.8%; under setting [8], 61.7%; under setting [9], 44.2%; under setting [10], 28.6%; (second compound 0.0316 µM, first compound 0.316 µM) 31.6%; (second compound 0.0316 µM, first compound 1 µM) 29.2%. For the same molecule, the viability, T/C under setting [11] is 93.6%; the viability, T/C under setting [12] is 64.3%; the viability, T/C under setting [13] is 33.8%; the viability, T/C under setting [14] is 29.6%; the viability, T/C (second compound 0.1 µM, first compound 0.316 µM) was 34.7%; the viability, T/C (second compound 0.1 µM, first compound 1 µM) is 32%. The viability, T/C is, setting by setting: under setting [15], 108%; under setting [16], 65.8%; under setting [17], 35.1%; under setting [18], 36.2%; (second compound 0.316 µM, first compound 0.316 µM) 30.6%; (second compound 0.316 µM, first compound 1 µM) 28.9%. Moreover, the viability, T/C runs as follows: under setting [19], 109%; under setting [20], 81.8%; under setting [21], 36.1%; under setting [22], 32.6%; (second compound 1 µM, first compound 0.316 µM) 34.4%; (second compound 1 µM, first compound 1 µM) 30.1%. Moreover, the viability, T/C by setting is: under setting [23], 93.2%; under setting [24], 51.8%; under setting [25], 43.9%; under setting [26], 40.4%; (second compound 3.16 µM, first compound 0.316 µM) 30.8%; (second compound 3.16 µM, first compound 1 µM) 30.6%. Besides, the viability, T/C was 88.8% under setting [27]; 67.9% under setting [28]; 41% under setting [29]; 37.3% under setting [30]; 31% (second compound 10 µM, first compound 0.316 µM); 32.2% (second compound 10 µM, first compound 1 µM).

As for `CC[C@@]1(O)C(=O)OCc2c1cc1n(c2=O)Cc2cc3c(CN(C)C)c(O)ccc3nc2-1`, the viability, T/C was 81.3% and 82.1% and 82.2% (compound 0.000316 µM); 103% and 107% and 86.1% (compound 0.001 µM); 72.4% and 89.2% and 99% (compound 0.00316 µM); 103% and 118% and 92.3% (compound 0.01 µM); 96.8% and 83.6% and 81.2% (compound 0.0316 µM); 49.7% and 61.4% and 63% (compound 0.1 µM). For the setting “curve of compound”, the pIC50 is 7.00 and < 7.00.

For the molecule `Cn1ncnc1[C@H]1c2n[nH]c(=O)c3cc(F)cc(c23)N[C@@H]1c1ccc(F)cc1` + COC1C(OC(N)=O)C(O)C(Oc2ccc3c(O)c(NC(=O)c4ccc(O)c(CC=C(C)C)c4)c(=O)oc3c2C)OC1(C)C, the pIC50 runs as follows: under setting [1], less than 7.00; under setting [2], less than 7.00; under setting [3], less than 7.00; under setting [4], less than 7.00; under setting [5], less than 7.00; under setting [6], less than 7.00. The viability, T/C is 101% (second compound 0.0316 µM, first compound 0.000316 µM); 106% (second compound 0.0316 µM, first compound 0.001 µM); 85.8% under setting [7]; 83.9% under setting [8]; 92.9% under setting [9]; 83.2% under setting [10]. Moreover, the viability, T/C runs as follows: (second compound 0.1 µM, first compound 0.000316 µM) 96.5%; (second compound 0.1 µM, first compound 0.001 µM) 113%; under setting [11], 103%; under setting [12], 89.8%; under setting [13], 88.5%; under setting [14], 83.5%. For the same molecule, the viability, T/C was 94.7% (second compound 0.316 µM, first compound 0.000316 µM); 73.8% (second compound 0.316 µM, first compound 0.001 µM); 97.6% under setting [15]; 115% under setting [16]; 103% under setting [17]; 89.5% under setting [18]. In addition, the viability, T/C (second compound 1 µM, first compound 0.000316 µM) was 84%; the viability, T/C (second compound 1 µM, first compound 0.001 µM) was 105%; the viability, T/C under setting [19] was 121%; the viability, T/C under setting [20] is 94.8%; the viability, T/C under setting [21] is 90.8%; the viability, T/C under setting [22] is 70.6%. For the same molecule, the viability, T/C runs as follows: (second compound 3.16 µM, first compound 0.000316 µM) 101%; (second compound 3.16 µM, first compound 0.001 µM) 102%; under setting [23], 84.3%; under setting [24], 84.6%; under setting [25], 61.7%; under setting [26], 90%. Besides, the viability, T/C (second compound 10 µM, first compound 0.000316 µM) is 128%; the viability, T/C (second compound 10 µM, first compound 0.001 µM) is 92.7%; the viability, T/C under setting [27] is 85.4%; the viability, T/C under setting [28] is 105%; the viability, T/C under setting [29] was 78.7%; the viability, T/C under setting [30] was 95.8%.

For the molecule `COc1cc2cc(C(=O)CCC(=O)O)sc2cc1OC`, the viability, T/C runs as follows: (compound 0.0316 µM) 106% and 94.9% and 129%; (compound 0.1 µM) 67.4% and 98.4% and 94.5%; (compound 0.316 µM) 126% and 89.9% and 95.3%; (compound 1 µM) 100% and 99.5% and 86.7%; (compound 3.16 µM) 84.1% and 107% and 110%; (compound 10 µM) 67.2% and 78.6% and 93.8%. In addition, the pIC50 (curve of compound) was less than 5.00.

Regarding `O=c1[nH]cc(F)c(=O)[nH]1`, the viability, T/C reads like this: (compound 0.0316 µM) 103% and 81.1% and 79.2%; (compound 0.1 µM) 114% and 90.2% and 81.6%; (compound 0.316 µM) 113% and 80.6% and 77.4%; (compound 1 µM) 90.5% and 72.5% and 74.6%; (compound 3.16 µM) 75.5% and 63.4% and 54.9%; (compound 10 µM) 59% and 54.3% and 47.8%. Also, the pIC50 (curve of compound) is < 5.00 and 5.15.

What is called pIC50 is −log10 of the IC50, conventionally taken in molar units. For orientation: viability, T/C means the ratio of treated to control.
